This is an account of results in ChEMBL document CHEMBL3769356, “Rational design in search for 5-phenylhydantoin selective 5-HT7R antagonists. Molecular modeling, synthesis and biological evaluation” (Eur J Med Chem, 2016).

The species named for series [1] is Homo sapiens. The experiment in a line: Selectivity ratio of Ki for human 5-HT1A receptor to Ki for human 5-HT7 receptor.
Series [2] deals with T1, 5-hydroxytryptamine receptor 1A (Homo sapiens, UniProt P08908).
T1 sequence (P08908 whole entry): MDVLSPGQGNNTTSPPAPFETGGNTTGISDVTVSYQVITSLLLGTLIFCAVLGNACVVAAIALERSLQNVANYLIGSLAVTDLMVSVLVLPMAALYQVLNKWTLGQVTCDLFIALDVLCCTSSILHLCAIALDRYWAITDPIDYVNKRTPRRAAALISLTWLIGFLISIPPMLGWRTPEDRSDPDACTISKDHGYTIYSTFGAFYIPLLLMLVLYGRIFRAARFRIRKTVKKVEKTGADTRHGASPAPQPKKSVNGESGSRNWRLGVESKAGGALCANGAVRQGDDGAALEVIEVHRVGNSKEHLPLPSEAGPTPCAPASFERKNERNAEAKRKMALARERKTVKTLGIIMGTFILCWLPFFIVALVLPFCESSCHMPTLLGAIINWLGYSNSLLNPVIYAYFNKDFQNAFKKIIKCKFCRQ
The experiment in a line: Displacement of [3H]-8-OH-DPAT from human 5-HT1A receptor expressed in HEK293 cells. It counts as cell-based.

Series [3] has as its target T2, 5-hydroxytryptamine receptor 7 (Homo sapiens, UniProt P34969). It counts as functional, cell-based, HEK293.
The species named for series [4] is Homo sapiens. The experiment in a line: Selectivity ratio of Ki for human dopamine D2L receptor to Ki for human 5-HT7 receptor.
A further series has as its target D(2) dopamine receptor (Homo sapiens, UniProt P14416). The experiment in a line: Displacement of [3H]-Raclopride from human dopamine D2L receptor expressed in HEK293 cells. It counts as cell-based.
For series [5], the target named is T2, 5-hydroxytryptamine receptor 7. The experiment in a line: Agonist activity at human 5-HT7 receptor expressed in HEK293 cells assessed as increase in cAMP level at 10 uM after 15 mins by HTRF assay. It counts as functional, cell-based.
Series [6] has the same target. The experiment in a line: Displacement of [3H]-5-CT from human 5-HT7 receptor expressed in HEK293 cells. Type of series: cell-based.
Series [7] shares this target. The experiment in a line: Antagonist activity at human 5-HT7 receptor expressed in HEK293 cells assessed as inhibition of 5-CT-induced cAMP production at 10 uM preincubated for 15 mins followed by 5-CT addition measured after 15 mins by HTRF assay. It counts as functional, cell-based.
The target of the next series is CYP3A4 (Homo sapiens, UniProt P08684). The experiment in a line: Inhibition of recombinant human CYP3A4 assessed as remaining activity at 25 uM by luminescence -based microplate reader assay. Type of series: ADME. The conditions noted are these: read-out: Activity.
The subject of series [8] is Liver microsome. The experiment in a line: Drug level in recombinant human liver microsomes treated with 5-(4-fluorophenyl)-3-(2-hydroxy-3-(4-(2-methoxyphenyl)piperazin-1-yl)propyl)-5-methylimidazolidine-2,4-dione at 50 uM after 120 mins by UPLC-MS/MS analysis. The conditions noted are these: 2 h. It counts as ADME.
Series [9] has as its system Liver microsome. The experiment in a line: Retention time of the compound in recombinant human liver microsomes treated with 5-(4-fluorophenyl)-3-(2-hydroxy-3-(4-(2-methoxyphenyl)piperazin-1-yl)propyl)-5-methylimidazolidine-2,4-dione at 50 uM after 120 mins by UPLC-MS/MS analysis. It counts as ADME. The conditions noted are these: 2 h.

The source made the active and inactive calls. The rule behind the calls is not given here.

T2 sequence (P34969 whole entry): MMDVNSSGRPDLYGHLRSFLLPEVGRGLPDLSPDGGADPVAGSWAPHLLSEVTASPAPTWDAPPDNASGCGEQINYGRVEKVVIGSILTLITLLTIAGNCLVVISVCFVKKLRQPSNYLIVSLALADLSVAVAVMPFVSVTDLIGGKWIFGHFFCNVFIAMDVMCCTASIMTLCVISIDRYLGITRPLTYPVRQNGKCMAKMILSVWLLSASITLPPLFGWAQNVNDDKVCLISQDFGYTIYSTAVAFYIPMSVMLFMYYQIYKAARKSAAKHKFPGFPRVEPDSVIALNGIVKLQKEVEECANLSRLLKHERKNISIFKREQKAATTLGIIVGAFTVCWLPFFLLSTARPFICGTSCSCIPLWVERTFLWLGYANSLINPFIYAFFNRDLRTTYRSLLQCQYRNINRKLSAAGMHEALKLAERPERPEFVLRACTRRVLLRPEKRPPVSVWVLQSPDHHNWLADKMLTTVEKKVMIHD
Sequence of D(2) dopamine receptor (P14416 whole entry): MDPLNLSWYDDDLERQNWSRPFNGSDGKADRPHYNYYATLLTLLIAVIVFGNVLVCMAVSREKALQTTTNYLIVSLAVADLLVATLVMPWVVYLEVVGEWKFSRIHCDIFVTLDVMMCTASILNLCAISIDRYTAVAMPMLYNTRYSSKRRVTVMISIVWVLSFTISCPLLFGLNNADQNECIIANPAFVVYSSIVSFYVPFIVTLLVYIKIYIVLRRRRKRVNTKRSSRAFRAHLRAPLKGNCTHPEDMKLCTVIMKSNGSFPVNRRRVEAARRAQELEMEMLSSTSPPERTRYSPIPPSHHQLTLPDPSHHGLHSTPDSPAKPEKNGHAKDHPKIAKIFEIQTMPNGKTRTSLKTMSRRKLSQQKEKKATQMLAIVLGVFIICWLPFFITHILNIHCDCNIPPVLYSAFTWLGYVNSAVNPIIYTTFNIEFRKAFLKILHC
Sequence of CYP3A4 (P08684 whole entry): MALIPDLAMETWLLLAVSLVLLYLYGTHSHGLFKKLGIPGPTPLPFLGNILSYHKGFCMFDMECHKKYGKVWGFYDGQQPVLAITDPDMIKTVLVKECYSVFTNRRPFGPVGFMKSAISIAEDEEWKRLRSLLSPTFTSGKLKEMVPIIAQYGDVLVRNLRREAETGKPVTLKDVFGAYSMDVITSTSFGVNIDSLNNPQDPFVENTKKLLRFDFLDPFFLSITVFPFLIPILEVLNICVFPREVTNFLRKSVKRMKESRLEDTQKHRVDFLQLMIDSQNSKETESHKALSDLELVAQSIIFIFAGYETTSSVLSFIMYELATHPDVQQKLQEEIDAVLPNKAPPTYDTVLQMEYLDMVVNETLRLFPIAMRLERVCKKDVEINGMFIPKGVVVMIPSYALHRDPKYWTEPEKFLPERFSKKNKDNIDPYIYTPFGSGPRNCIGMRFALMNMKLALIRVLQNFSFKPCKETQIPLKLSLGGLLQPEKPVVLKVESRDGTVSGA

As for `COc1cccc(N2CCN(CC(O)CN3C(=O)NC(C)(c4ccc(F)cc4)C3=O)CC2)c1` (centres undefined), the Ratio Ki in the series filed under Homo sapiens [1] was found to be 33; in the series listed under Homo sapiens [4] it was 58. The inhibition constant Ki in series [2] was 2970 nM; at D(2) dopamine receptor it was 5190 nM; in [6] it was 89 nM. The molecule further yielded a concentration for half-maximal inhibition (IC50) in series [3] of 5940 nM. Also, the Activity entry in series [5] was “inactive”.
Regarding `Cc1ccc(N2CCN(CC(O)CN3C(=O)NC(C)(c4ccc(F)cc4)C3=O)CC2)cc1C` (centres undefined), the Ratio Ki was found to be 6 in the series filed under Homo sapiens [1] and 13 in the series listed under Homo sapiens [4]. Moreover, the Ki in [2] was 1000 nM; at D(2) dopamine receptor it was 2260 nM; in series [6], 177 nM. Besides, in series [7], the inhibition was found to be 19%. Also, the Activity entry in series [5] was “inactive”.
With `CC1(c2ccc(F)cc2)NC(=O)N(CC(O)CN2CCN(c3ccc(Cl)c(Cl)c3)CC2)C1=O` (centres undefined), the figures for the Ratio Ki in the series listed under Homo sapiens [1] and in the series listed under Homo sapiens [4] were 6 and 14, respectively. In addition, the inhibition constant Ki came to 821 nM in series [2], 1980 nM at D(2) dopamine receptor and 141 nM in [6]. In series [3], this molecule displayed an IC50 of 24000 nM. Besides, the Activity result in series [5] was “inactive”.
Regarding `CC1(c2ccc(F)cc2)NC(=O)N(CC(O)CN2CCN(c3ccc(F)cc3)CC2)C1=O` (centres undefined), the Ratio Ki turned out to be 8 in the series filed under Homo sapiens [1] and 7 in the series listed under Homo sapiens [4]. Also, the Ki in series [2] worked out at 6860 nM; on D(2) dopamine receptor, 5640 nM; in series [6], 837 nM. The inhibition in series [7] was found to be 12%. The Activity entry in series [5] was “inactive”.
For the molecule `NCCc1c[nH]c2ccc(C(N)=O)cc12`, the Activity result in series [5] was “Active”.
With `CC1(c2ccc(F)cc2)NC(=O)N(CC(O)CN2CCN(c3ccccc3)CC2)C1=O` (centres undefined), the Ratio Ki in the series listed under Homo sapiens [1] was 12; in the series listed under Homo sapiens [4], 13. The Ki came to 2730 nM in series [2], 2910 nM at D(2) dopamine receptor and 223 nM in [6]. Also, in series [7], the inhibition stood at 18%. Further, the Activity result in series [5] was “inactive”.
For the molecule `COc1ccccc1N1CCN(CC(O)CN2C(=O)NC(C)(c3ccc(F)cc3)C2=O)CC1` (centres undefined), at CYP3A4, the activity at 25 µM was found to be 50%.
On to `CC1(c2ccc(F)cc2)NC(=O)N(CC(O)CN2CCN(c3ccccc3Cl)CC2)C1=O` (centres undefined), for which the Ratio Ki in the series listed under Homo sapiens [1] came out at 8; in the series listed under Homo sapiens [4], 18. The Ki in series [2] is 397 nM; on D(2) dopamine receptor, 839 nM; in series [6], 47 nM. The inhibition in [7] amounted to 30%. The Activity result in series [5] is “inactive”.
As to `Cc1ccc(C)c(N2CCN(CC(O)CN3C(=O)NC(C)(c4ccc(F)cc4)C3=O)CC2)c1` (centres undefined), the Ratio Ki in the series filed under Homo sapiens [1] came out at 23; in the series filed under Homo sapiens [4], 32. Also, the Ki in series [2] is 1300 nM; on D(2) dopamine receptor, 1810 nM; in [6] it was 56 nM. The same molecule yielded a concentration for half-maximal inhibition (IC50) in [3] of 1010 nM. Besides, the Activity result in series [5] was “inactive”.
As for `CC1(c2ccc(F)cc2)NC(=O)N(CC(O)CN2CCN(c3ccc(Cl)cc3)CC2)C1=O` (centres undefined), the Ratio Ki in the series listed under Homo sapiens [1] amounted to 6; in the series filed under Homo sapiens [4], 5. Also, the inhibitory constant (Ki) amounted to 5300 nM in series [2], 4260 nM at D(2) dopamine receptor and 908 nM in series [6]. Besides, the inhibition in series [7] was found to be 16%. In [5], the Activity result was “inactive”.
As to `CC1(c2ccc(F)cc2)NC(=O)N(CC(O)CN2CCN(c3ccccc3F)CC2)C1=O` (centres undefined), the Ratio Ki in the series listed under Homo sapiens [1] and in the series listed under Homo sapiens [4] was 7 throughout. Besides, the inhibition constant (Ki) came out at 1650 nM in [2], 1710 nM at D(2) dopamine receptor and 234 nM in series [6]. In addition, in [7], the inhibition was 6%. The Activity result in series [5] is “inactive”.
Regarding `CC1(c2ccc(F)cc2)NC(=O)N(CC(O)CN2CCN(c3cccc(Cl)c3Cl)CC2)C1=O` (centres undefined), the Ratio Ki is 3 in the series listed under Homo sapiens [1] and 18 in the series filed under Homo sapiens [4]. Moreover, the Ki in series [2] turned out to be 59 nM; on D(2) dopamine receptor, 302 nM; in series [6], 17 nM. Also, the 50% inhibitory concentration (IC50) in [3] is 1390 nM. The Activity entry in [5] is “inactive”.
Turning to `CC1(c2ccc(F)cc2)NC(=O)N(CC(O)CN2CCN(c3ccccc3O)CC2)C1=O` (centres undefined), the Drug metabolism entry in the series with Liver microsome [8] is recorded as “metabolite_detected”. Also, the Retention_time with Liver microsome [9] is on record as 3.77 min.
With `CC1(c2ccc(F)cc2)NC(=O)N(CC(O)CN2CCN(C(c3ccccc3)c3ccccc3)CC2)C1=O` (centres undefined), the results for the Ratio Ki in the series listed under Homo sapiens [1] and in the series filed under Homo sapiens [4] were 71 and 3, respectively. This molecule also gave an IC50 in series [3] of 1810 nM. Also, the Activity result in [5] is “inactive”.
`CCOc1ccccc1N1CCN(CC(O)CN2C(=O)NC(C)(c3ccc(F)cc3)C2=O)CC1` (centres undefined): the Ratio Ki came out at 10 in the series listed under Homo sapiens [1] and 13 in the series listed under Homo sapiens [4]. Further, the results for the Ki (in [2]; on D(2) dopamine receptor; in series [6]) were 98 nM, 127 nM and 10 nM, respectively. Besides, the half-inhibitory concentration (IC50) in series [3] was 81 nM. For the same molecule, the Activity result in series [5] is “inactive”.
For `CC1(c2ccc(F)cc2)NC(=O)N(CC(O)CN2CCN(c3ccccc3C#N)CC2)C1=O` (centres undefined), the Ratio Ki in the series listed under Homo sapiens [1] stood at 23; in the series filed under Homo sapiens [4] it was 67. For the same molecule, the inhibitory constant (Ki) came to 319 nM in [2], 931 nM on D(2) dopamine receptor and 14 nM in series [6]. Further, the IC50 in series [3] turned out to be 343 nM. In series [5], the Activity result was “inactive”.
On to `CC1(c2ccc(F)cc2)NC(=O)N(CC(O)CN2CCN(c3ccc(F)cc3F)CC2)C1=O` (centres undefined), for which the Ratio Ki in the series filed under Homo sapiens [1] worked out at 8; in the series filed under Homo sapiens [4], 4. Moreover, the figures for the Ki (in [2]; on D(2) dopamine receptor; in [6]) were 9170 nM, 6790 nM and 1190 nM, respectively. In addition, the inhibition in series [7] was found to be 9%. The Activity result in series [5] is “inactive”.
